Experimental data as given in US20050277664A1, “Monoamine neurotransmitter re-uptake inhibitor for the inhibition of beta-amyloid generation” (Boehringer Ingelheim International GmbH, priority 2004, published 2005).
Read-outs that look alike come from different tables or passages of the source.

How the values were obtained:
[1] = system: Aβ42 secretion by U373 astrocytoma cells expressing human wtAPP695; experiment: Aβ secretion assay, Aβ42 (sandwich ELISA of cell supernatant); type: cell-based; details: for inhibition at 1.56 µM / inhibition at 3.12 µM / inhibition at 6.25 µM / inhibition at 12.5 µM / inhibition at 25 µM / inhibition at 50 µM: Homo sapiens, U373 MG, 17 h, read-out: Aβ42 Secretion, inhibition (−) or stimulation (+); for generation/secretion of Aβ42 (result in words): dose response
Method: (§1) Cell culture and drug treatment: U373 astrocytoma cells expressing human wtAPP695 were used to test the compound of formula IA for Aβ lowering potential. Cells were cultured in 96 well plates in DMEM medium, additionally supplemented with 10% FCS and 1% glutamine, until they have grown to a confluent cell layer. The cells were then incubated for 17 hours in the presence of the compound of formula IA in DMEM medium. Afterwards, 100 μl of the supernatant had been removed and measured with the ELISA as described below to determine the Aβ42 peptide concentrations. The cells were washed, incubated again for 4 hours with the compound, before measuring the Aβ40 levels. AlamarBlue assays (Serotec, Oxford, UK) were conducted to determine cytotoxicity.
(§2) Monoclonal 6E10 against Aβ1-17 (Signet Laboratories, Inc., Dedham, Mass., USA) was used to capture Aβ40; SGY 3160 against Aβ1-16 (Mayo Medical Ventures, Rochester, Minn., USA) to capture Aβ42. Both antibodies were diluted in PBS at a concentration of 8 μg/ml to coat a 96 well plate. Blocking was completed with 1% Block ACE (blocking reagent) (Dainippon Seiyaku, Asaka, Japan) in PBS for 2 hrs. The plates were then washed with PBST and the cell supernatants, diluted 1:1.5 in EC buffer (0.1 M NaH2PO4, 0.1 M Na2HPO4, 2 mM EDTA, 0.4 M NaCl, 0.2% BSA, 0.05% CHAPS, 0.4% Block ACE, 0.05% NaN3 pH 7.0) have been added into the wells, before the plates were stored at 4° C. over night. Detector antibodies (alkaline phosphatase-coupled ROβ40 and ROβ42 against Aβ40 and Aβ42, respectively), were loaded onto the wells at 0.1 μg/ml in ACE Block for 2 hrs. The reporter system used was the Tropix ELISA-Light chemiluminescent detection system (Applied Biosystems (Tropix), Bedford, Mass., USA).
(§3) The compound of formula IA has been tested in an Aβ secretion assay. In this particular in vitro assay, the astrocytoma cell line U373 that stably over-expresses wild-type human amyloid precursor protein (APP) has been exposed to this compound. APP is proteolytically cleaved by 2 enzymes, BACE and γ secretase, to generate the Aβ peptides. Because of a flexible APP cleavage site of γ secretase, several Aβ isoforms are generated, majorly Aβ40 and Aβ42. The rate of Aβ generation/secretion into the medium in the presence or absence of the compound of formula IA in different concentrations has been measured by ELISA (Table 1). The % inhibition (−) or stimulation (+) has been determined in 2 independent experiments.

[2] = system: Aβ40 secretion by U373 astrocytoma cells expressing human wtAPP695; experiment: Aβ secretion assay, Aβ40 (sandwich ELISA of cell supernatant); type: cell-based; details: for inhibition at 1.56 µM / inhibition at 3.12 µM / inhibition at 6.25 µM / inhibition at 12.5 µM / inhibition at 25 µM / inhibition at 50 µM: Homo sapiens, U373 MG, 4 h, read-out: Aβ40 Secretion, inhibition (−) or stimulation (+); for generation/secretion of Aβ40 (result in words): dose response
Method: as §1, §2, §3

[3] = system: cerebral Aβ40 levels in APPtg mice; experiment: Cerebral Aβ40 levels in APPtg mice after oral treatment; type: in vivo; details: for Level of Aβ40, reduction (−) and/or stimulation (+) of cerebral Aβ levels: per os
Method: (§4) APPtg mice at 3 to 4 months of age were used. A compound of formula (IA) was prepared and administered in a suspension of 0.5% Tylose solution.
(§5) Controls were treated with Tylose only. Each group consisted of 12 or 13 mice with equal numbers of each sex. In the short term study, the animals were treated for the time period of 2.5 days. Twice a day, a dose of 3 mg/kg was applied with interruption times of 11.5-12.5 hours. On the last day (day of sacrifice), one dose of 3 mg/kg was administered and the mice were sacrificed 5.5 hours later. […] In a second long term four weeks study, 3 mg/kg/day of compound of formula IA were administered, subdivided into two subdoses, with an interruption time of 10-12 hours during the day. Each version of the in vivo experiments has been performed once.
(§6) The murine brains were rapidly removed from the skull and divided along the medial fissure. The cerebellum was removed before each half was quickly frozen down on a metal plate that had been cooled down on dry ice. Brains were placed in Eppendorf tubes, frozen in liquid nitrogen, and stored at −80° C. until needed for Aβ extractions or compound measurements.
(§7) Brains were thawed on ice. Mouse hemibrains were extracted in a homogenisation buffer consisting of 20 mM Tris (pH 8.5), 0.2% Triton X-100, and complete proteinase inhibitor with EDTA (Roche Diagnostics GmbH, Mannheim, Germany). The brains were homogenized in a volume […] 5 times the weight of the brain (mg) using a 2 ml Douncer Homogenator (B. Braun, Melsungen, Germany). This was carried out 12 times with a Stempel L, followed by a Stempel S. The homogenates were then ultracentrifuged in Ultracentrifuge tubes (Beckman, CA, USA) at 200.000 g (UZ Sorvall RC 120 GX, KENDRO Laboratories Products GmbH, Hanau, Germany) at 4° C. for 1 hour. The post nuclear supernatants containing the soluble Aβ were collected and measured in a Sandwich ELISA (s.a.).
(§8) Statistical analyses of data was done by one-sided t tests for differences between treatment and control group to determine the p values.

[4] = system: cerebral Aβ42 levels in APPtg mice; experiment: Cerebral Aβ42 levels in APPtg mice after oral treatment; type: in vivo; details: for Level of Aβ42, reduction (−) and/or stimulation (+) of cerebral Aβ levels: per os
Method: as §4, §5, §6, §7, §8

[5] = Exp. 1, further 4 hours incubation
[6] = Exp. 2, further 4 hours incubation

`CCOC[C@H]1C2CCC(C[C@@H]1c1ccc(Cl)c(Cl)c1)N2C` (some centres unmarked) [Formula IA] was tested, and the inhibition at 1.56 µM ([1]; Exp. 1, 17 hours incubation) was 3.5%, the inhibition at 1.56 µM ([1]; Exp. 2, 17 hours incubation) was -4.5% and the inhibition at 3.12 µM ([1]; Exp. 1, 17 hours incubation) was 6.5%. The inhibition at 3.12 µM ([1]; Exp. 2, 17 hours incubation) was -16.1%, the inhibition at 6.25 µM ([1]; Exp. 1, 17 hours incubation) was 4.1% and the inhibition at 6.25 µM ([1]; Exp. 2, 17 hours incubation) was 12.1%. For the same molecule, the inhibition at 12.5 µM ([1]; Exp. 1, 17 hours incubation) was 17.8%, the inhibition at 12.5 µM ([1]; Exp. 2, 17 hours incubation) was 23.2% and the inhibition at 25 µM ([1]; Exp. 1, 17 hours incubation) was 24.5%. The inhibition at 25 µM ([1]; Exp. 2, 17 hours incubation) was 48.9%, the inhibition at 50 µM ([1]; Exp. 1, 17 hours incubation) was 26.6% and the inhibition at 50 µM ([1]; Exp. 2, 17 hours incubation) was 62.3%. The “generation/secretion of Aβ42 (result in words)” value ([1]; FIG. 2) was “increasing inhibition of Aβ42 with an increasing concentration”, the “generation/secretion of Aβ42 (result in words)” value ([1]; FIG. 2, listed as formula 1A) was “inhibited” and the inhibition at 1.56 µM [2, 5] was 3.2%. For the same molecule, the inhibition at 1.56 µM [2, 6] was -16%, the inhibition at 3.12 µM [2, 5] was 6.1% and the inhibition at 3.12 µM [2, 6] was -8%. For the same molecule, the inhibition at 6.25 µM [2, 5] was 20.9%, the inhibition at 6.25 µM [2, 6] was 2.8% and the inhibition at 12.5 µM [2, 5] was 33.9%. For the same molecule, the inhibition at 12.5 µM [2, 6] was 24.8%, the inhibition at 25 µM [2, 5] was 50.1% and the inhibition at 25 µM [2, 6] was 50.3%. The inhibition at 50 µM [2, 5] was 81.3%, the inhibition at 50 µM [2, 6] was 88.5% and the “generation/secretion of Aβ40 (result in words)” value ([2]; FIG. 1) was “increasing inhibition of Aβ40 with an increasing concentration”. The “generation/secretion of Aβ40 (result in words)” value ([2]; FIG. 1, listed as formula 1A) was “inhibited”, the “Level of Aβ40, reduction (−) and/or stimulation (+) of cerebral Aβ levels” value (“Level of Aβ40, reduction” below) ([3]; APPtg mice, 2 weeks, 1 × 3.0 mg/kg/day, mean ± SEM) was −18.6 ± 7.1 % and the “Level of Aβ40, reduction” value ([3]; APPtg mice, 4 weeks, 2 × 1.5 mg/kg/day, mean ± two-sided confidence interval) was −17.2 ± 8.7° %. For the same molecule, the “Level of Aβ40, reduction” value ([3]; APPtg mice, 2.5 days, 2 × 3.0 mg/kg day 1, 2, 1 × 3.0 mg/kg day 3, mean ± SEM vs Tylose control) was −12.4 ± 1.9 %, the “reduction of Aβ40” value ([3]; four weeks study, 3 mg/kg/day in two subdoses, APPtg mice) was 17.2% and the “Aβ40 levels in vivo (result in words)” value ([3]; in vivo test, FIG. 3 (short term experiment)) was “statistically significant reduction”. The “reduction of the Aβ40 levels” value ([3]; short term in vivo experiment (2.5 days, 3 mg/kg twice a day), APPtg mice, p=0.0003) was 12.4%, the “reduction of the cerebral Aβ40 levels” value ([3]; two weeks treatment, 3 mg/kg once a day, APPtg mice, p=0.024) was 18.6% and the “reduction for Aβ42” value ([4]; four weeks study, 3 mg/kg/day in two subdoses) was 27.4%. For the same molecule, the “Level of Aβ42, reduction (−) and/or stimulation (+) of cerebral Aβ levels” value (from here on “Level of Aβ42, reduction”) ([4]; 2 weeks, 1 × 3.0 mg/kg/day, mean ± SEM) was −16.3 ± 3.7 %, the “Level of Aβ42, reduction” value ([4]; 4 weeks, 2 × 1.5 mg/kg/day, mean ± two-sided confidence interval) was −27.4 ± 27.2° % and the “Level of Aβ42, reduction” value ([4]; 2.5 days, 2 × 3.0 mg/kg day 1, 2, 1 × 3.0 mg/kg day 3, mean ± SEM vs Tylose control) was “+5.1 ± 3.0%”. The “increase of Aβ42 levels” value ([4]; short term in vivo experiment (2.5 days, 3 mg/kg twice a day), p=0.9136) was 5.1% and the “reduction of the cerebral Aβ42 levels” value ([4]; two weeks treatment, 3 mg/kg once a day, p=0.0096) was 16.3%.
